Source: PubChem BioAssay (NCI)
Where “and” joins values, the source holds several entries; their conditions need not be identical. Equal entries are not always repeated.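 Values below derive from 48-hour exposures of cells grown in 96-well plates, with endpoints linearly interpolated between the two concentrations bracketing the appropriate inhibition level. GI50 is the concentration that inhibits growth by half. TGI denotes the concentration required for complete inhibition of growth.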

Legend:
Assay in all cases: NCI-60 cell line screen, 48 h
CCRF-CEM leukemia = test system: CCRF-CEM leukemia
DMS 273 small cell lung = test system: DMS 273 small cell lung
HT29 colon = test system: HT29 colon
KM12 colon = test system: KM12 colon
KM20L2 colon = test system: KM20L2 colon
LXFL 529 NSCLC = test system: LXFL 529 NSCLC
MALME-3M melanoma = test system: MALME-3M melanoma
NCI-H23 lung = test system: NCI-H23 lung
SK-MEL-2 melanoma = test system: SK-MEL-2 melanoma
SNB-78 CNS = test system: SNB-78 CNS
T-47D breast = test system: T-47D breast

Structure (SMILES)	TGI (CCRF-CEM leukemia) [µM]	TGI (DMS 273 small cell lung) [µM]	TGI (HT29 colon) [µM]	TGI (KM12 colon) [µM]	TGI (KM20L2 colon) [µM]	TGI (LXFL 529 NSCLC) [µM]	TGI (MALME-3M melanoma) [µM]	TGI (NCI-H23 lung) [µM]	TGI (SK-MEL-2 melanoma) [µM]	TGI (SNB-78 CNS) [µM]	GI50 (CCRF-CEM leukemia)	GI50 (HT29 colon)	GI50 (KM12 colon)	GI50 (MALME-3M melanoma) [µM]	GI50 (NCI-H23 lung) [µM]	GI50 (SK-MEL-2 melanoma) [µM]	GI50 (T-47D breast) [µM]	TGI (T-47D breast) [µM]
CNS(=O)(=O)NN(C)S(=O)(=O)c1ccc2ccccc2c1	> 100	> 100	> 100	> 100	> 100	> 100	> 100	> 100	> 100									
CC1C[C@]2(C[C@@H](C)C(=O)O2)O[C@@H]2CC3(C)[C@@H]4CCC5C(C)(C)OC(=O)C[C@H]6OO[C@]4(CC[C@]3(C)C12)CC56O (stereo not given in full)		> 100	> 100			> 100	> 100	> 100	> 100	> 100								
O=[N+]([O-])c1ccc(/C=C/c2csnn2)cc1	> 100		> 100	> 100		> 100	> 100	> 100	> 100	> 100								
COc1ccc(/C=C2\CN(Cc3cn(CCNc4ccnc5cc(Cl)ccc45)nn3)C/C(=C\c3ccc(OC)c(OC)c3)C2=O)cc1OC	> 100		8.82	3.6			6.19	37.8	26.6		2.54 µM	3.13 µM	1.87 µM	2.78	7.45	3.88	5.05	> 100
CC1(C)C=N[N+]2(C)C3C=CC(CC3)C12 (stereo not given)	> 100		> 100	> 100	> 100	> 100	> 100	> 100	> 100	> 100								
Cc1ccc(NC(=S)SCCC(=O)O)cc1	> 100	> 100	> 100	> 100	> 100	> 100		> 100	> 100	> 100								
COc1cc2c(cc1OC)NC(=O)NC(Cc1ccc3c(c1)OCO3)CC2 (stereo not given)	> 100	> 100		> 100	> 100	> 100	> 100	> 100	> 100	> 100								
COc1c(-c2ccc(O)c(O)c2)oc2c(O)c(O)cc(O)c2c1=O	97.7		39.8	> 100			> 100	> 100	> 100									> 100
CCCCCCCCCCCCCCCC(=O)OCC1OC(OC)C2NP(=O)(N(CCCl)CCCl)OC1C2O (stereo not given)	9.26	5.09	> 66.8	41.9	46.7	8.06	34.1	6.76	24.3	19.2								
Cc1cc(C(=O)NC(CCC(=O)O)C(=O)O)sc1CCC1CNc2nc(N)[nH]c(=O)c2C1 (stereo not given)	> 100		> 100	> 100			> 100	> 100	> 100		0.0123 µM and 0.0273 µM	< 0.0198 µM and 0.0322 µM	0.0383 µM and 0.0937 µM					> 100
C=CC1(NS(=O)(=O)c2ccc(C)cc2)CCC(C(C)(C)C)CC1 (stereo not given)	> 100	> 100		> 100	> 100	> 100	> 100		> 100	> 100								
